Assay results from patent US20260034091A1, “Compositions and Methods for Treating Metabolic Disorders” (The Regents of the University of California, priority 2022, published 2026).

Legend:
[1] = tested on: CDAHFD diet-induced NAFLD/NASH in wild-type mice; experiment: TOFA in wild-type mice on CDAHFD (comparison to PPARA KO); format: in vivo, C57BL/6J (WT) mice
Experimental: Six-week-old genetic PPARA knockout (PPARA KO) male mice were fed with a L-amino acid diet with 60 kcal % fat with 0.1% methionine and no added choline (CDAHFD; Research Diets A06071302i) for three weeks or fed with a 60 kcal % fat diet (DIO; Research Diets A12492i) for eight weeks before introduction of either vehicle (control) or 125 mg/kg of TOFA, BID, via oral gavage for an additional two weeks (FIG. 11A and FIG. 11J, respectively). C57BL/6J (WT) mice were fed with the CDAHFD and underwent similar experimental conditions and time course. Mice weights and adverse events were monitored during the treatment time course. Upon study termination, serum and liver samples were collected. Serum liver damage biomarkers, ALT and AST, were measured by commercially available kits (abcam105134 and abcam 105135, respectively). Hepatic and serum triglyceride levels were measured from a commercially available kit (abcam65336). […] Quantitative PCR (qPCR) was performed with fast SYBR Green Mix (ThermoFisher A25742) on the QuantStudio6 System (Applied Biosciences). Protein expression levels of liver samples were measured by western blot using antibodies against ACC1/2 (CST3662, 1:1000), VLDLR (AF2258, 1:2000), CPT1A (CST12252, 1:1000), PPARA (abcam126285, 1:1000) and beta-tubulin (CST2146, 1:1000). […]

[2] = tested on: CDAHFD induced late stage NAFLD/NASH in mice; experiment: Rescue effect of TOFA in CDAHFD induced late-stage NAFLD/NASH progression; format: in vivo, C57BL/6 male mice; details: 250 mg/kg daily, four weeks
Experimental: Six-week-old C57BL/6 male mice were fed with a L-Amino Acid Diet With 60 kcal % Fat With 0.1% Methionine and No Added Choline (Research Diets A06071302i) for eight weeks before introduction of either vehicle (control) or 250 mg/kg of TOFA daily via twice daily controlled oral gavage for an additional four weeks (FIG. 3A). Upon study termination at 12 weeks, serum and liver samples were collected. Serum liver damage biomarkers, ALT and AST, were measured by commercially available kits (abcam105134 and abcam 105135, respectively). Hepatic and serum triglyceride levels were measured from a commercially available kit (abcam65336). Liver samples were fixed in 4% paraformaldehyde and embedded in paraffin blocks for sectioning and subsequently stained with hematoxylin and eosin (H&E) or Picrosirius Red with a fast green dye background. Frozen fresh liver tissue was embedded in OCT, sectioned, and subsequently stained with Oil Red O.

[3] = tested on: CDAHFD induced NAFLD progression in mice; experiment: Dose dependent effect of TOFA in CDAHFD-induced NAFLD progression in mice; format: in vivo; details: 3 weeks
Experimental: Six-week-old C57BL/6 male mice were fed with a L-Amino Acid Diet With 60 kcal % Fat With 0.1% Methionine and No Added Choline (Research Diets A06071302i) for three weeks before introduction of either vehicle (control) or TOFA via oral gavage for an additional three weeks (FIG. 1a). Mice were gavaged orally twice daily with varying doses of TOFA (0, 25, 50, 125, or 250 mg/kg per day). Upon study termination at six weeks, serum and liver samples were collected. Serum liver damage biomarkers, alanine transaminase (ALT) and aspartate transaminase (AST), were measured by commercially available kits (abcam105134 and abcam 105135, respectively). Hepatic triglycerides were detected from liver samples from a commercially available kit (abcam65336). Liver samples were also scored for degree of hepatic steatosis based on their hematoxylin and eosin (H&E) staining.

[4] = tested on: CDAHFD-induced late stage NAFLD/NASH in mice; experiment: Benchmark study against Firsocostat and Fenofibrate in CDAHFD-induced late stage NAFLD/NASH; format: in vivo, C57BL/6J male mice; details: QD oral gavage four weeks
Experimental: Six-week-old C57BL/6J male mice were fed with a L-amino acid diet with 60 kcal % fat with 0.1% methionine and no added choline (CDAHFD; Research Diets A06071302i) for eight weeks. Mice were randomly assigned to treatment groups of either a vehicle (control), 250 mg/kg of TOFA, 5 mg/kg of Firsocostat (Gilead Sciences), 50 mg/kg of Fenofibrate, or a combined dose of 5 mg/kg Firsocostat and 50 mg/kg Fenofibrate. All treatments were delivered QD by oral gavage for an additional four weeks. Mice weights and food intake were monitored during the treatment time course. Upon study termination at 12 weeks, liver and serum samples were collected. Serum liver damage biomarkers, ALT and AST, were measured by commercially available kits (abcam 105134 and abcam 105135, respectively). Hepatic and serum triglyceride levels were measured from a commercially available kit (abcam65336). Total RNA was extracted from liver tissues (Qiagen RNeasy kit 74106), and cDNA was prepared (BioRAD iScript™ Reverse Transcription) according to manufacturer's protocols. Quantitative PCR (qPCR) was performed with fast SYBR Green Mix (ThermoFisher A25742) on the QuantStudio6 System (Applied Biosciences). Protein expression levels of liver samples were measured by western blot using antibodies against VLDLR (AF2258, 1:2000), CPT1A (CST12252, 1:1000) and Histone H3 (CST9715, 1:1000). Membranes were developed using a HRP secondary antibody (1:5000) and visualized using an enhanced chemiluminescent HRP substrate (Thermo34577). Additional liver samples were fixed in 4% paraformaldehyde and embedded in paraffin blocks for sectioning and subsequently stained with hematoxylin and eosin (H&E).

[5] = scored per Kleiner, et al. (2005)
[6] = TOFA 0, 25, 50, 125, or 250 mg/kg per day, oral gavage twice daily

In the case of `CCCCCCCCCCCCCCOc1ccc(C(=O)O)o1` [TOFA, 5-(Tetradecyloxy)-2-furoic acid], the “Cpt1a mRNA (RT-qPCR)” value ([1]; 125 mg/kg BID, two weeks) is reported as “induction of Cpt1a mRNA”, the “protein expression levels of CPT1A, VLDLR, and ACC1 (western blot)” value ([1]; relative to vehicle control) is reported as “increased” and the “cytoplasmic vacuolations by H&E staining” value ([2]; liver sections) is reported as “decreased cytoplasmic vacuolations”. For the same molecule, the “fibrosis by Picrosirius Red staining” value ([2]; liver sections) was “decreased fibrosis”, the “lipid content by Oil Red O staining” value ([2]; liver sections) was “reduction in lipid content” and the “ballooning (histopathological score)” value [2, 5] was “reductions”. The “degree of hepatic steatosis (histopathological score)” value [2, 5] was “decreased degree of hepatic steatosis”, the “fibrosis (histopathological score)” value [2, 5] was “reductions” and the “inflammation (histopathological score)” value [2, 5] was “reductions”. The liver triglyceride content ([2]; twice daily oral gavage) was “reduced”, the “serum ALT activity levels” value ([2]; twice daily oral gavage) was “significant decrease” and the “serum AST levels” value ([2]; twice daily oral gavage) was “averaged reduction”. For the same molecule, the serum triglyceride levels ([2]; twice daily oral gavage) was “no increase”, the “degree of hepatic steatosis (H&E score)” value [3, 6] was “decreased degree of hepatic steatosis correlating to an increased dosage of TOFA” and the “liver triglyceride contents per gram of liver” value [3, 6] was “decreased in a dose dependent manner”. The “serum ALT activity levels” value [3, 6] was “dose dependent decrease”, the “serum AST activity levels” value [3, 6] was “dose dependent decrease” and the tolerability ([3]; TOFA up to 250 mg/kg per day, oral) was “well tolerated”. For the same molecule, the food intake [4] was “not attributed to changes in food intake”, the liver damage ([4]; TOFA 250 mg/kg) was “largely decreased liver damage relative to vehicle control treatment at comparable, or stronger, degrees than Firsocostat, Fenofibrate, or the combination of the two agents” and the liver triglyceride levels ([4]; TOFA 250 mg/kg) was “strong decrease in liver triglyceride levels relative to Firsocostat treatments and vehicle control treatment”. For the same molecule, the body weight ([4]; TOFA 250 mg/kg, Firsocostat 5 mg/kg, Fenofibrate 50 mg/kg) was “significant weight loss”, the “PPARA downstream targets Vldlr and Cpt1a (RT-qPCR)” value ([4]; liver mRNA) was “unique increase” and the “genes involved in inflammation (Il1b, Il6) and collagen synthesis (Col1a1, Col3a) by RT-qPCR” value ([4]; liver mRNA) was “specific, comparable response”. The “protein expression levels of VLDLR and CPT1A (western blot)” value ([4]; liver samples) was “increased protein expression levels of VLDLR and CPT1A to higher degrees than the other treatment regimens” and the “steatosis (H&E staining)” value ([4]; liver sections) was “decreased levels of steatosis”.
